Experiments:
[1] = biological target: T1, HAB1 in the presence of PYL4 (Arabidopsis thaliana, UniProt O80920); assay: PP2C phosphatase assay (pNPP), GST-HAB1 in the presence of PYL4; format: biochemical; settings: recombinant PYL4 refolded from inclusion bodies
T1 construct: vector pHB3; made in house
T1 sequence (O80920 1-207): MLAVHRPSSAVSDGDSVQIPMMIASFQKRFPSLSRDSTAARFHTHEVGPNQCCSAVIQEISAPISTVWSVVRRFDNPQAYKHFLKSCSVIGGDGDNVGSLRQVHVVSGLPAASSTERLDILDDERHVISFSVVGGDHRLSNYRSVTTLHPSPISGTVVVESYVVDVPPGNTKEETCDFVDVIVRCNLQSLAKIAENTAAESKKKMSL
T1 sequence (Q9CAJ0 23-511 partner): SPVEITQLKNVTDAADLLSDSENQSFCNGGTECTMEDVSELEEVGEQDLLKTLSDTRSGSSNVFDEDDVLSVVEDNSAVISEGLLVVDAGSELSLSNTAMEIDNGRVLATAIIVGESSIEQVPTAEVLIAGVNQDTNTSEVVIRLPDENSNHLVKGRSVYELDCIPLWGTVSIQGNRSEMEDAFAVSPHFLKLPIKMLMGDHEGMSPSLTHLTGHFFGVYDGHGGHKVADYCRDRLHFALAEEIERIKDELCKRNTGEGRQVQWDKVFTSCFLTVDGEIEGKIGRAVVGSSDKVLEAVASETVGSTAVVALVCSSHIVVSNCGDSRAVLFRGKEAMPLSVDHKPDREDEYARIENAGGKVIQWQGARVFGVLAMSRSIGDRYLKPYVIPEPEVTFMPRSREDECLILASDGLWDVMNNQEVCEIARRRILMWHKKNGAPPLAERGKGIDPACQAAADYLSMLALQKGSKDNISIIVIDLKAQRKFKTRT

[2] = biological target: T2, PYR1 and PP2Cs (GST-HAB1, GST-ABI1, GST-ABI2) (Arabidopsis thaliana, UniProt O49686); assay: Pull-down assay of 6×His-PYR1 with GST-PP2Cs; format: binding; settings: purified recombinant proteins; 10 μM (+)-ABA
T2 construct: made in house; host or cells: E. coli BL21[DE3]pLysS
T2 sequence (O49686 1-191): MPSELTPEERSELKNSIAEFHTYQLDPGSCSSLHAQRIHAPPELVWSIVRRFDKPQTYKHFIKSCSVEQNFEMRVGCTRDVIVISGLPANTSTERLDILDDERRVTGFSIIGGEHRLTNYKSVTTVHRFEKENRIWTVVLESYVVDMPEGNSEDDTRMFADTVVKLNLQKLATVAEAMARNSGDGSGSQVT
T2 sequence (Q9CAJ0 1-511 partner): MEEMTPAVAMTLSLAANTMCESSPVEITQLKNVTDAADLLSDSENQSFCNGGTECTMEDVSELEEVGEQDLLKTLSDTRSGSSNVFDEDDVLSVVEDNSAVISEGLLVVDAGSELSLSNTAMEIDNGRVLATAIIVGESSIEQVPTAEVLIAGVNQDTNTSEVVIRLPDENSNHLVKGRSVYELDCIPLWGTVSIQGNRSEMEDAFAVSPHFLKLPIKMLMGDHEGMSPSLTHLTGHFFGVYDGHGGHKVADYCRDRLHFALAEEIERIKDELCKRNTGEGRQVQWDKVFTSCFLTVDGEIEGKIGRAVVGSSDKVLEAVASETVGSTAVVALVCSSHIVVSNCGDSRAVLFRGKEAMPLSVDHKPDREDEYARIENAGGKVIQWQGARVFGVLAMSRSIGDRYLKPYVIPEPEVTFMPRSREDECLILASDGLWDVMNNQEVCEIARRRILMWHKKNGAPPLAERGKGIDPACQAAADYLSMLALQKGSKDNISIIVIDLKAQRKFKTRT
Procedure: To explore the functional implications of the PYR1-PP2C interaction, we examined if an ABA response could be reconstituted in vitro. Recombinant GST-HAB1, GST-ABI1 and GST-ABI2 were expressed in E. coli and tested for ligand-dependent interactions with 6×His-PYR1 in pull-down assays. Purified 6×His-PYR1 and GST-HAB1 (20 and 100 μg respectively, 8 μM PYR1 final concentration), were combined in 100 μl TBS containing 10 μM (+)-ABA or 1% DMSO for negative control. The reaction was incubated for 90 minutes at RT and 5 μl of PrepEase (USB) His-tagged protein purification resin was added. The resin and reaction mixture was incubated 30 min at RT with gentle shaking at 5 min intervals. The resin was washed five times with TBS containing 10 μM (+)-ABA. After the final wash, the bound protein was eluted in 20 μl SDS-PAGE buffer, boiled for 5 minutes and centrifuged. 5 μl of eluate was analyzed on SDS-PAGE. For pull-downs with ABI1 and ABI2, crude lysates were used in a similar method, except purified PP2C was replaced with cleared E. coli lysates. The amount of lysate added was determined by SDS-page analysis to yield ˜100 μg PP2C, such that the same stoichiometry was used as in assays using purified proteins.

SMILES	inhibition of HAB1 phosphatase activity in the presence of PYL4 [1]	ligand-dependent PP2C interaction with 6×His-PYR1 in pull-down [2]
CC1=CC(=O)CC(C)(C)[C@@]1(O)/C=C/C(C)=C\C(=O)O [ABA, Abscisic acid]	saturable inhibition	–
O=S(=O)(NCc1ccccn1)c1ccc(Br)c2ccccc12 [pyrabactin]	–	promote PP2C interactions with PYR1
CC1=CC(=O)CC(C)(C)C1(O)/C=C/C(C)=C\C(=O)O (single isomer, unassigned; (+)) [(+)-ABA]	inhibits HAB1 phosphatase activity	promote PP2C interactions with PYR1
